Experimental data taken from patent publication US20210196627A1, “SYSTEMS FOR ENTERIC DELIVERY OF THERAPEUTIC AGENTS” (Lyndra, Inc., priority 2018, published 2021).

Assay: Memantine bioanalysis in plasma after duodenal placement of stellate system (LC-MS/MS)
Assay type: in vivo, beagle dogs
Source text: Six male beagle dogs (each weighing ˜10 kg) were anesthetized and intubated, and stellate-shaped systems bearing memantine drug arms were placed endoscopically through the pylorus into the duodenum. Each stellate system contained steel beads at the tips of the drug arms which facilitated X-ray imaging for confirming successful duodenal placement.
X-rays were collected daily to monitor residence time in the small intestine. Blood samples were collected through Day 10 of the study and processed to plasma for quantitation of memantine using an LC-MS/MS assay. The dogs were monitored for the duration of the study for safety.

time for which sustained release of memantine was measurable (dog plasma, stellate system placed in duodenum, blood sampled through Day 10): 7 days
Tmax (male, beagle, memantine in dog plasma, stellate system placed endoscopically in duodenum): 8 h
exposure from the small intestine (memantine in dog plasma, stellate system placed in duodenum): good exposure
Structure (SMILES): CC12CC3CC(C)(C1)CC(N)(C3)C2 [memantine]
